Experimental findings from article PMC5336394 (Structure (London, England : 1993), 2017) are described below.

The experiment has as its system CypA. The experiment in a line: HA peptide isomerization. The settings on record: Pro2 of the HA peptide. Format: biochemical.

With YPTDVPDYA [HA], the “isomerization at Pro2” value is listed as “not isomerized by CypA”.
